# Assay results published in patent publication US5573923A, “Method for removing N-terminal dipeptides from precursor polypeptides with immobilized dipeptidylaminopeptidase from dictyostelium discoideum” (Eli Lilly and Company, priority 1993, dated 1996).
# Residues, ends and D or L forms follow the SMILES beside them. *: point of attachment. pNA = O=[N+]([O-])c1ccc(N*)cc1; AMC = Cc1cc(=O)oc2cc(N*)ccc12; βNA = c1ccc2cc(N*)ccc2c1; Cbz = O=C(OCc1ccccc1)*
# How the values were obtained:
# dDAP [1] = assay: Cleavage of RRBNA and Z-RRBNA (fluorescence increase); type: biochemical, Dictyostelium discoideum; details: about 0.25 mM substrate, pH 3.5 or pH 5.0, about 15 milliunit/ml enzyme
# Procedure: (§1) About 0.25 mM RRBNA or 0.25 mM Z-RRBNA was prepared in either 100 mM acetic acid, pH 3.5, or 100 mM citrate buffer, pH 5.0. To 2 ml of substrate was added dDAP or bovine DAP-I (about 15 milliunit/ml solution). Rates of cleavage (monitoring fluorescence increase at 410 nm with excitation at 340 nm) were monitored. […] The pH optimum for cleavage of RRBNA was probed by monitoring the rate of RRBNA cleavage using a buffer system consisting of 50 mM acetic acid and 50 mM citrate. Various pHs were achieved using HCl or NaOH and 1.5 ml volumes were made 2.0 with 0.5 ml of a 1 mM stock solution of RRBNA (final concentration of about 0.25 mM). dDAP was added (to about 15 mU/ml) and the rates of cleavage were determined.
# bovine DAP-I = target: T1, bovine DAP-I (Bos taurus, UniProt Q3ZCJ8); assay: as above; type: biochemical; details: about 0.25 mM substrate, pH 3.5 or pH 5.0, about 15 milliunit/ml enzyme
# T1 construct: bovine spleen DAP-I; from tissue; host or cells: bovine spleen
# Procedure: as §1
# dDAP [2] = assay: pH dependence of substrate cleavage by dDAP; type: biochemical, Dictyostelium discoideum; details: unbound dDAP
# Procedure: The pH optima for the GFpNA cleaving ability of dDAP was determined by adjusting a buffer consisting of 0.5M Tris®, phosphate and citrate with 10% HCl or 10% NaOH to various pHs within the range of 3 to 8. dDAP enzyme was diluted 20-fold in a buffer containing 100 mM cysteamine and 10 mM NaCl. Bovine DAP-I was diluted 200-fold in the same buffer. A GFpNA substrate solution (4 mM) was prepared in 2% dimethylformamide. In a microtiter plate, 0.025 ml of the Tris/phosphate/citrate buffer of various pH's was combined with 0.1 ml of diluted enzyme and with 0.1 ml of substrate solution. The rate of increase of absorbance at 410 nm was determined on a plate-reader over a 30 minute period.
# Four mM GRpNA was prepared in 50 mM acetic acid, 50 mM glycine buffer, pH 5. HCl or NaOH was used to achieve a variety of pHs, from 5.1 to 2.3. To 180 ul of the above pH buffered substrate was added 5 ul dDAP (49 milliunits/ml final). The rate of increase of absorbance at 410 nm was monitored (using a plate-reader) and the rate of increase was compared with the pH of the reaction solution.
# as §1
# The skilled artisan will recognize that the optimum pH for cleavage of a substrate not only depends upon the enzyme but the substrate itself, that is, the constitution of the removed dipeptide as well as the indicator group itself.
# dDAP [3] = assay: Inhibition of GFpNA cleavage by sulfhydryl modifying agents; type: biochemical, Dictyostelium discoideum; details: 0.5, 5.0 or 50 mM inhibitor, 15 minutes at room temperature, pH 7; then 4 mM GFpNA, pH 3.5, 37° C.
# Procedure: (§2) After purification or storage, dDAP enzymatic activity was usually monitored by following the cleavage of the chromogenic substrate GFpNA. Typically the assay was performed by diluting the enzyme at least 11 fold into 1.0 ml of 4 mM GFpNA in 0.05M acetic acid adjusted to pH 3.5. The rate of cleavage of Gly-Phe dipeptide was monitored at 37° C. by measuring the increase in absorbance at 405 nm. One unit of activity leads to a 0.90 OD change per minute under these conditions. Unit/ml estimates can be made assuming an extinction coefficient for free p-nitroanilide (pNA) of 9.9 mM-1 cm-1 at 405 nm.
# (§3) The inhibition profile of dDAP toward the substrate GFpNA was compared to that of bovine spleen DAP-I using iodoacetamide and potassium tetrathionate, sulfhydryl modifying agents known to inhibit the activity of bovine spleen DAP-I. Samples of dDAP or bovine spleen DAP-I were incubated for 15 minutes at room temperature in final concentrations of 0, 0.5, 5.0 or 50 mM of either inhibitor at pH 7 in 100 mM Tris buffer. The incubated solutions were then diluted 21-fold with 4 mM GFpNA, pH 3.5. The rate of cleavage was monitored by measuring the increase in absorbance at 405 nm at 37° C. Bovine DAP-I's rate of cleavage of GFpNA was decreased more than 90% by the exposure to 5 mM iodoacetamide and was 95% inhibited by 5 mM potassium tetrathionate.
# bovine spleen DAP-I = target: T2, bovine spleen DAP-I (Bos taurus, UniProt Q3ZCJ8); assay: as above; type: biochemical; details: 5 mM inhibitor, 15 minutes at room temperature, pH 7; then 4 mM GFpNA, pH 3.5, 37° C.; read-out: decrease (inhibition) of rate of cleavage of GFpNA
# T2 construct: bovine spleen DAP-I; from tissue; host or cells: bovine spleen
# Procedure: as §2, §3
# T1 sequence (Q3ZCJ8 231-394 limits assumed): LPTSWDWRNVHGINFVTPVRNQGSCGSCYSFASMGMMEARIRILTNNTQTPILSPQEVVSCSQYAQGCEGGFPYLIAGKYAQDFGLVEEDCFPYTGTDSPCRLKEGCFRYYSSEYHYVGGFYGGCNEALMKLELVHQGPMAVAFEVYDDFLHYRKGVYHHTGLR
# T1 sequence (Q3ZCJ8 395-463 limits assumed): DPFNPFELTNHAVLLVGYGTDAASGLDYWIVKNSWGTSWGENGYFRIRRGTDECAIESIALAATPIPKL
# T1 sequence (Q3ZCJ8 25-143 limits assumed): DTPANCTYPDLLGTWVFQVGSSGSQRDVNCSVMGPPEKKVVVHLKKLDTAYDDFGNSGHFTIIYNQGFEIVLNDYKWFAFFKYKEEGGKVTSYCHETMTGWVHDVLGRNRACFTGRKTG
# T2 sequence (Q3ZCJ8 231-394 limits assumed): as the sequence (Q3ZCJ8 231-394 limits assumed) above
# T2 sequence (Q3ZCJ8 395-463 limits assumed): as the sequence (Q3ZCJ8 395-463 limits assumed) above
# T2 sequence (Q3ZCJ8 25-143 limits assumed): as the sequence (Q3ZCJ8 25-143 limits assumed) above
smiles,measurement,setting,value
"N=C(N)NCCC[C@H](NC(=O)OCc1ccccc1)C(=O)N[C@@H](CCCNC(=N)N)C(=O)Nc1ccc2ccccc2c1 [Z-RRBNA, Benzyioxycarbonyl-RRBNA] (Cbz-Arg-Arg-βNA)",cleavage of substrate,dDAP [1],unable to cleave
same,cleavage of substrate,bovine DAP-I,unable to cleave
Cc1cc(=O)oc2cc(NC(=O)[C@H](CCCNC(=N)N)NC(=O)CN)ccc12 [Gly-Arg-7-amido-4-methylcoumarin] (H-Gly-Arg-{AMC}),pH optimum for cleavage of the substrate,dDAP [2],~5 pH
"N=C(N)NCCC[C@H](NC(=O)CN)C(=O)Nc1ccc([N+](=O)[O-])cc1 [GRpNA, Gly-Arg-pNA] (H-Gly-Arg-pNA)",activity over the pH range,dDAP [2],little activity below pH 2.5 or above pH 5
same,pH optimum for cleavage of the substrate,dDAP [2]; listed as G1y-Arg-pNA,~3.5 pH
"NCC(=O)N[C@@H](Cc1ccccc1)C(=O)Nc1ccc([N+](=O)[O-])cc1 [GFpNA, Gly-Phe p-nitroanilide] (H-Gly-Phe-pNA)",pH optimum for cleavage of the substrate,dDAP [2],~3.5 pH
O=S(=O)([O-])SSS(=O)(=O)[O-].[K+].[K+] [potassium tetrathionate],inhibition of GFpNA cleavage,dDAP [3],no evidence of significant inhibition
NC(=O)CI [iodoacetamide],inhibition at 5000 µM,bovine spleen DAP-I,> 90%
same,inhibition of GFpNA cleavage,dDAP [3],no evidence of significant inhibition
"N=C(N)NCCC[C@H](NC(=O)[C@@H](N)CCCNC(=N)N)C(=O)Nc1ccc2ccccc2c1 [RRBNA, Arg-Arg-β-naphthylamide] (H-Arg-Arg-βNA)",activity over the pH range,dDAP [2],significant activity seen over the entire range probed (pH 3.5 to pH 5.7)
same,cleavage of substrate,dDAP [1],able to effectively cleave
same,cleavage of substrate,bovine DAP-I,unable to cleave
